Reference: ChEMBL document CHEMBL4507279, “Data for DCP probe BI-9627” (2021)

Columns and labels:
[1] = molecular target: Tyrosine-protein kinase Fer (Homo sapiens) (UniProt P16591); details: Compound concentration 1000.0 nM
[2] = system: Tyrosine-protein kinase ABL1 (Homo sapiens), P00519 [M351T]; details: Compound concentration 1000.0 nM
[3] = molecular target: Mitogen-activated protein kinase kinase kinase 13 (Homo sapiens) (UniProt O43283); details: Compound concentration 1000.0 nM
[4] = molecular target: Serine/threonine-protein kinase STK11 (Homo sapiens) (UniProt Q15831); details: Compound concentration 1000.0 nM
[5] = molecular target: Serine/threonine-protein kinase BRSK1 (Homo sapiens) (UniProt Q8TDC3); details: Compound concentration 1000.0 nM
Sequence of Serine/threonine-protein kinase BRSK1 (Homo sapiens) (Q8TDC3 whole entry): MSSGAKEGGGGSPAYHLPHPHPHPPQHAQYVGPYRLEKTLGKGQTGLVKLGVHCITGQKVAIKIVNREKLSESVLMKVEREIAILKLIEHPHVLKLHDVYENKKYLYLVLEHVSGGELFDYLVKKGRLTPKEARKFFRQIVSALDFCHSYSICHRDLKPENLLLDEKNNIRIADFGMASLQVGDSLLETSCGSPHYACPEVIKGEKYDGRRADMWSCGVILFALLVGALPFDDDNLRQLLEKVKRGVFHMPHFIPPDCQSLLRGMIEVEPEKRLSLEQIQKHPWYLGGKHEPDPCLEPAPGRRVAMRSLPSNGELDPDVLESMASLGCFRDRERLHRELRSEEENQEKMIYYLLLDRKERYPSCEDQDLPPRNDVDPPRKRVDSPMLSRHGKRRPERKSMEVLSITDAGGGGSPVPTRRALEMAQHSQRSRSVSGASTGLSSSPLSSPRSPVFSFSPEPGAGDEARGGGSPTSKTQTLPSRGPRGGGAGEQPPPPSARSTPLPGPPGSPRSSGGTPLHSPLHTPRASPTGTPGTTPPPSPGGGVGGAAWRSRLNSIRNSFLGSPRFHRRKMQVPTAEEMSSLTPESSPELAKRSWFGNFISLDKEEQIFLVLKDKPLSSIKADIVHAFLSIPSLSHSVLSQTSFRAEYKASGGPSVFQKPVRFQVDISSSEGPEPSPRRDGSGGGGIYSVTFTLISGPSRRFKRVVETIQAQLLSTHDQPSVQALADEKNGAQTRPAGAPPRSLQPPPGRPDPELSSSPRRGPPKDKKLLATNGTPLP

[6] = molecular target: Activin receptor type-1 (Homo sapiens) (UniProt Q04771); details: Compound concentration 1000.0 nM
[7] = molecular target: Sodium-dependent serotonin transporter (Homo sapiens) (UniProt P31645); details: Compound concentration 10.0 uM
[8] = molecular target: Receptor-interacting serine/threonine-protein kinase 4 (Homo sapiens) (UniProt P57078); details: Compound concentration 1000.0 nM
[9] = molecular target: Ephrin type-B receptor 6 (Homo sapiens) (UniProt O15197); details: Compound concentration 1000.0 nM
[10] = molecular target: Histamine H4 receptor (Homo sapiens) (UniProt Q9H3N8); details: Compound concentration 10.0 uM
[11] = molecular target: Atypical kinase COQ8B, mitochondrial (Homo sapiens) (UniProt Q96D53); details: Compound concentration 1000.0 nM
[12] = molecular target: Dual specificity mitogen-activated protein kinase kinase 6 (Homo sapiens) (UniProt P52564); details: Compound concentration 1000.0 nM
[13] = molecular target: Serine/threonine-protein kinase MRCK gamma (Homo sapiens) (UniProt Q6DT37); details: Compound concentration 1000.0 nM
[14] = molecular target: 5-hydroxytryptamine receptor 6 (Homo sapiens) (UniProt P50406); details: Compound concentration 10.0 uM
[15] = molecular target: Alpha-2C adrenergic receptor (Homo sapiens) (UniProt P18825); details: Compound concentration 10.0 uM
Sequence of Alpha-2C adrenergic receptor (Homo sapiens) (P18825 whole entry, canonical isoform): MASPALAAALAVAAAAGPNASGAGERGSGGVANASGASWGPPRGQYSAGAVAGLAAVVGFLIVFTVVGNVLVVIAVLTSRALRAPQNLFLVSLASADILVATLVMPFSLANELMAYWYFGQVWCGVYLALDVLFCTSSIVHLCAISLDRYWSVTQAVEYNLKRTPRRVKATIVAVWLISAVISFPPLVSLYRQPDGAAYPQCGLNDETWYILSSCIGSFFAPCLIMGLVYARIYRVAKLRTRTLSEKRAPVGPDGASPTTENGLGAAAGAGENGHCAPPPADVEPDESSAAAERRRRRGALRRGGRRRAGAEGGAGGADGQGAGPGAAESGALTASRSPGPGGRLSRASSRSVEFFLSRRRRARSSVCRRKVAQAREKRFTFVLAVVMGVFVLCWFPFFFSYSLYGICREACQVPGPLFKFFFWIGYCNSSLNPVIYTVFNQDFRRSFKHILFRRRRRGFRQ

[16] = molecular target: Casein kinase I isoform gamma-1 (Homo sapiens) (UniProt Q9HCP0); details: Compound concentration 1000.0 nM
[17] = molecular target: Tyrosine-protein kinase Lck (Homo sapiens) (UniProt P06239); details: Compound concentration 1000.0 nM
[18] = molecular target: Homeodomain-interacting protein kinase 1 (Homo sapiens) (UniProt Q86Z02); details: Compound concentration 1000.0 nM
[19] = molecular target: Glycogen synthase kinase-3 alpha (Homo sapiens) (UniProt P49840); details: Compound concentration 1000.0 nM
[20] = molecular target: Focal adhesion kinase 1 (Homo sapiens) (UniProt Q05397); details: Compound concentration 1000.0 nM
Sequence of Focal adhesion kinase 1 (Homo sapiens) (Q05397 2-1052 limits assumed): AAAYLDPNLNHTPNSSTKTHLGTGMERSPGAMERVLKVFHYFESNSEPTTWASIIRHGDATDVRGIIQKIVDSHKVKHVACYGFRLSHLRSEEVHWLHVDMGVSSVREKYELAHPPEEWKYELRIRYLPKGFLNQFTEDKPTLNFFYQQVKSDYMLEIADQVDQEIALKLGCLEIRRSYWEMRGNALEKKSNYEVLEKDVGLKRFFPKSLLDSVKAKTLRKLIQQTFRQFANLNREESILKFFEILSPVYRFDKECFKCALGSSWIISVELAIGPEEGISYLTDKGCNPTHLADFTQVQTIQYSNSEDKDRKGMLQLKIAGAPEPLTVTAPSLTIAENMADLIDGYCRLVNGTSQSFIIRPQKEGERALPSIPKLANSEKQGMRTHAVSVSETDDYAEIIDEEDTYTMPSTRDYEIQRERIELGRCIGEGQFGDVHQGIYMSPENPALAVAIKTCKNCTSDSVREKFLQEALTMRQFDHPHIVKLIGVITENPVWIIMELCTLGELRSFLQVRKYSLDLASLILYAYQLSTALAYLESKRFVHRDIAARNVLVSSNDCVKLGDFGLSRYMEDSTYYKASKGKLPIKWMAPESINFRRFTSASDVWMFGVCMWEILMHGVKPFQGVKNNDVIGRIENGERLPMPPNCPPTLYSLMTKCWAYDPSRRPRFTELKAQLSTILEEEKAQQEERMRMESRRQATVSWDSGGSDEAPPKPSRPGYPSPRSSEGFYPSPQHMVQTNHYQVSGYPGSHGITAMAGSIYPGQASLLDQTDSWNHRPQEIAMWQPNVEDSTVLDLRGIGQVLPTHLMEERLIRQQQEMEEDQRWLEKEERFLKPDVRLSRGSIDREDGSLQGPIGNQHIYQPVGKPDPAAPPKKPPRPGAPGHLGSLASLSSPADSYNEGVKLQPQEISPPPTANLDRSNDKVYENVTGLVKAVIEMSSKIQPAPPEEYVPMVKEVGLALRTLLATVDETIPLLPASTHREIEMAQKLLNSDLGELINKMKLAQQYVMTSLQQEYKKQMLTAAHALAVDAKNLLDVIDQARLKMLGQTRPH

[21] = molecular target: Microtubule-associated serine/threonine-protein kinase 1 (Homo sapiens) (UniProt Q9Y2H9); details: Compound concentration 1000.0 nM
[22] = molecular target: Cyclin-dependent kinase 8 (Homo sapiens) (UniProt P49336); details: Compound concentration 1000.0 nM
[23] = molecular target: 1-phosphatidylinositol 3-phosphate 5-kinase (Homo sapiens) (UniProt Q9Y2I7); details: Compound concentration 1000.0 nM
[24] = molecular target: Cyclin-dependent kinase-like 5 (Homo sapiens) (UniProt O76039); details: Compound concentration 1000.0 nM
[25] = molecular target: Serine/threonine-protein kinase 32A (Homo sapiens) (UniProt Q8WU08); details: Compound concentration 1000.0 nM
[26] = system: Mast/stem cell growth factor receptor Kit (Homo sapiens), P10721 [V559D]; details: Compound concentration 1000.0 nM
[27] = molecular target: STE20/SPS1-related proline-alanine-rich protein kinase (Homo sapiens) (UniProt Q9UEW8); details: Compound concentration 1000.0 nM
[28] = molecular target: Glycogen synthase kinase-3 beta (Homo sapiens) (UniProt P49841); details: Compound concentration 1000.0 nM
[29] = molecular target: Bone morphogenetic protein receptor type-2 (Homo sapiens) (UniProt Q13873); details: Compound concentration 1000.0 nM
[30] = system: Tyrosine-protein kinase ABL1 (Homo sapiens), P00519 [F317L]; details: Compound concentration 1000.0 nM
[31] = molecular target: Dual specificity mitogen-activated protein kinase kinase 2 (Homo sapiens) (UniProt P36507); details: Compound concentration 1000.0 nM
[32] = molecular target: Serine/threonine-protein kinase mTOR (Homo sapiens) (UniProt P42345); details: Compound concentration 1000.0 nM
[33] = molecular target: Tyrosine-protein kinase Fes/Fps (Homo sapiens) (UniProt P07332); details: Compound concentration 1000.0 nM
[34] = molecular target: Dual specificity protein kinase CLK1 (Homo sapiens) (UniProt P49759); details: Compound concentration 1000.0 nM
[35] = molecular target: Dual specificity tyrosine-phosphorylation-regulated kinase 1A (Homo sapiens) (UniProt Q13627); details: Compound concentration 1000.0 nM
[36] = molecular target: Platelet-derived growth factor receptor alpha (Homo sapiens) (UniProt P16234); details: Compound concentration 1000.0 nM
[37] = molecular target: Activin receptor type-1-like (Homo sapiens) (UniProt P37023); details: Compound concentration 1000.0 nM
[38] = molecular target: Protein kinase C iota type (Homo sapiens) (UniProt P41743); details: Compound concentration 1000.0 nM
[39] = molecular target: Mitogen-activated protein kinase kinase kinase 2 (Homo sapiens) (UniProt Q9Y2U5); details: Compound concentration 1000.0 nM
[40] = molecular target: Serine/threonine-protein kinase PAK 5 (Homo sapiens) (UniProt Q9P286); details: Compound concentration 1000.0 nM
[41] = molecular target: Serine/threonine-protein kinase WNK1 (Homo sapiens) (UniProt Q9H4A3); details: Compound concentration 1000.0 nM
[42] = molecular target: Cyclin-dependent kinase-like 2 (Homo sapiens) (UniProt Q92772); details: Compound concentration 1000.0 nM
Sequence of Cyclin-dependent kinase-like 2 (Homo sapiens) (Q92772 whole entry): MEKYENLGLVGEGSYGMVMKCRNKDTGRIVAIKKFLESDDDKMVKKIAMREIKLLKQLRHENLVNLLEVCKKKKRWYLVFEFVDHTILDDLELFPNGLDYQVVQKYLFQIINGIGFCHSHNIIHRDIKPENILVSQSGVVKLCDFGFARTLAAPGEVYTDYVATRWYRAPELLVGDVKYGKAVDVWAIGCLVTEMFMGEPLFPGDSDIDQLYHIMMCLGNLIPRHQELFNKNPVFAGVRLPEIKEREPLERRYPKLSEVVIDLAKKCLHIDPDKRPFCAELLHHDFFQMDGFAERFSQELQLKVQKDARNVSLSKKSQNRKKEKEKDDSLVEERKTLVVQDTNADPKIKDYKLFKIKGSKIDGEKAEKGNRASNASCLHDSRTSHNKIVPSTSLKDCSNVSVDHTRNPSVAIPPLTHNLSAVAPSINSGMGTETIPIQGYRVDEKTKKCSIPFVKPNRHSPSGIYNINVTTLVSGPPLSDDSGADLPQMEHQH

[43] = system: Tyrosine-protein kinase ABL1 (Homo sapiens), P00519 [T315I]; details: Compound concentration 1000.0 nM
[44] = molecular target: Receptor tyrosine-protein kinase erbB-3 (Homo sapiens) (UniProt P21860); details: Compound concentration 1000.0 nM
Sequence of Receptor tyrosine-protein kinase erbB-3 (Homo sapiens) (P21860 whole entry): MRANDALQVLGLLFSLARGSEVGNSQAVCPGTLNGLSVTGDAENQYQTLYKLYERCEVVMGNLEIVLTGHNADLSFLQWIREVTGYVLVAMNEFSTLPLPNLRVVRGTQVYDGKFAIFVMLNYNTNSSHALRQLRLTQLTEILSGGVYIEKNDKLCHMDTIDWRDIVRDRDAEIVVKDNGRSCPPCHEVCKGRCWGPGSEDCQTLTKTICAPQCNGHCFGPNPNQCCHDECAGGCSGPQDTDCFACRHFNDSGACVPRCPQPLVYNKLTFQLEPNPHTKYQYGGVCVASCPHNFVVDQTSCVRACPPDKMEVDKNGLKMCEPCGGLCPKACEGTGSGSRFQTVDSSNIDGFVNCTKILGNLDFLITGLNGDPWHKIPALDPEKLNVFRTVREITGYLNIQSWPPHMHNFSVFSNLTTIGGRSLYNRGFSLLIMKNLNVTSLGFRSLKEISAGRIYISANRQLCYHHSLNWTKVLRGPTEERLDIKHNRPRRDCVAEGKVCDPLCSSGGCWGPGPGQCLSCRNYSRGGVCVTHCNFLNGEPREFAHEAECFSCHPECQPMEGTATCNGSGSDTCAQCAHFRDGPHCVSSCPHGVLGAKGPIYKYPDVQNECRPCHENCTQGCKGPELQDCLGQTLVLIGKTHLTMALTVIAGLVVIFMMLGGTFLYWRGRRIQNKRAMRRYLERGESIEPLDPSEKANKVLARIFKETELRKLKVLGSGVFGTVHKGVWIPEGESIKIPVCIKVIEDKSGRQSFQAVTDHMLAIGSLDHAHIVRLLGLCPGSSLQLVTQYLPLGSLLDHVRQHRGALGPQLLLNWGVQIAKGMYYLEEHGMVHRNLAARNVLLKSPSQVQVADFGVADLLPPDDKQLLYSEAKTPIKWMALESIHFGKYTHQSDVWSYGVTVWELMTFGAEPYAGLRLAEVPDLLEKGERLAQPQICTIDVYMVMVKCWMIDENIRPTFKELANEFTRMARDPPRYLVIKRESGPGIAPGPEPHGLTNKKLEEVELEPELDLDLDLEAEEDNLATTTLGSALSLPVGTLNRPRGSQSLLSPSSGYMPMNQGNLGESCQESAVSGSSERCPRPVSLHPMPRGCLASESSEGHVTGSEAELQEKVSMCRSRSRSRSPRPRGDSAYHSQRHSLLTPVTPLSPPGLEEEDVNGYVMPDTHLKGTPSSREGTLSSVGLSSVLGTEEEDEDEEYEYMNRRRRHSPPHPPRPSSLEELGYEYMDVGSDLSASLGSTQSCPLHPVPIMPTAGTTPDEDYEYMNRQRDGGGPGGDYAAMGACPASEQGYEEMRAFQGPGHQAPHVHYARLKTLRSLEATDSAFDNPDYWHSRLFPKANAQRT

[45] = molecular target: cGMP-dependent protein kinase 2 (Homo sapiens) (UniProt Q13237); details: Compound concentration 1000.0 nM

Sequence of Tyrosine-protein kinase Fer (Homo sapiens) (P16591 whole entry, looked up): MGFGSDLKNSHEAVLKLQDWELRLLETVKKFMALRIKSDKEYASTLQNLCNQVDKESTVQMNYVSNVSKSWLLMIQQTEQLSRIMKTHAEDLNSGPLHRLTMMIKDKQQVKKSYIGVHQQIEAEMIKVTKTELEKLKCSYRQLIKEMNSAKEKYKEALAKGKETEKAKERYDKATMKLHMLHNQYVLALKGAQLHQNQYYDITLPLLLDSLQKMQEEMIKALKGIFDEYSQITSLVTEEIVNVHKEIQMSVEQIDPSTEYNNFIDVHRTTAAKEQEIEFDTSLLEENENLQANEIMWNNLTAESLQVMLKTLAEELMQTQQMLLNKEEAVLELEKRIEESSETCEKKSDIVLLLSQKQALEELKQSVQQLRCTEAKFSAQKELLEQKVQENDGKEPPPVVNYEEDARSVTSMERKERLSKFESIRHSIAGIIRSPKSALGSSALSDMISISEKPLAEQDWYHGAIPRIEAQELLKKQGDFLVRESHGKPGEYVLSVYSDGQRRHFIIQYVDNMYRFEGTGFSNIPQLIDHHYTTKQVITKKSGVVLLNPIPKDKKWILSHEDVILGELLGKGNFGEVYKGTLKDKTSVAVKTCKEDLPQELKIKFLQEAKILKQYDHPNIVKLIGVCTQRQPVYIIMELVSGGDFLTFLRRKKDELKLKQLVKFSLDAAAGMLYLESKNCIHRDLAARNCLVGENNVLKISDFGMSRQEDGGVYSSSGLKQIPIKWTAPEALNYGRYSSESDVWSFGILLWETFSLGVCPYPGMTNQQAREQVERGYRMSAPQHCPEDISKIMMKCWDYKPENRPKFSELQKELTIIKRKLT

## CC(=O)N1CCC(c2ccc(C(=O)NC(=N)N)cc2C(F)(F)F)CC1 [BI 9627]
[1]
  residual activity: 96%
[2]
  residual activity: 100%
[3]
  residual activity: 100%
[4]
  residual activity: 73%
[5]
  residual activity: 87%
[6]
  residual activity: 100%
[7]
  inhibition: 21.4%
[8]
  residual activity: 76%
[9]
  residual activity: 100%
[10]
  inhibition: 7.11%
[11]
  residual activity: 100%
[12]
  residual activity: 100%
[13]
  residual activity: 92%
[14]
  inhibition: 1.25%
[15]
  inhibition: 9.12%
[16]
  residual activity: 100%
[17]
  residual activity: 100%
[18]
  residual activity: 81%
[19]
  residual activity: 97%
[20]
  residual activity: 100%
[21]
  residual activity: 49%
[22]
  residual activity: 100%
[23]
  residual activity: 84%
[24]
  residual activity: 82%
[25]
  residual activity: 100%
[26]
  residual activity: 100%
[27]
  residual activity: 90%
[28]
  residual activity: 85%
[29]
  residual activity: 100%
[30]
  residual activity: 100%
[31]
  residual activity: 96%
[32]
  residual activity: 100%
[33]
  residual activity: 96%
[34]
  residual activity: 100%
[35]
  residual activity: 74%
[36]
  residual activity: 100%
[37]
  residual activity: 100%
[38]
  residual activity: 100%
[39]
  residual activity: 100%
[40]
  residual activity: 100%
[41]
  residual activity: 100%
[42]
  residual activity: 100%
[43]
  residual activity: 95%
[44]
  residual activity: 98%
[45]
  residual activity: 100%

## CC(=O)N1CCC(c2ccc(C(=O)NC3=NCCN3)cc2C(F)(F)F)CC1 [BI 0054]
[1]
  residual activity: 93%
[2]
  residual activity: 100%
[3]
  residual activity: 100%
[4]
  residual activity: 71%
[5]
  residual activity: 100%
[6]
  residual activity: 100%
[7]
  inhibition: 11.8%
[8]
  residual activity: 64%
[9]
  residual activity: 100%
[10]
  inhibition: 9.81%
[11]
  residual activity: 97%
[12]
  residual activity: 100%
[13]
  residual activity: 93%
[14]
  inhibition: 0.267%
[15]
  inhibition: 16.3%
[16]
  residual activity: 95%
[17]
  residual activity: 100%
[18]
  residual activity: 91%
[19]
  residual activity: 78%
[20]
  residual activity: 17%
[21]
  residual activity: 87%
[22]
  residual activity: 100%
[23]
  residual activity: 88%
[24]
  residual activity: 79%
[25]
  residual activity: 100%
[26]
  residual activity: 100%
[27]
  residual activity: 100%
[28]
  residual activity: 88%
[29]
  residual activity: 100%
[30]
  residual activity: 87%
[31]
  residual activity: 100%
[32]
  residual activity: 67%
[33]
  residual activity: 100%
[34]
  residual activity: 100%
[35]
  residual activity: 74%
[36]
  residual activity: 92%
[37]
  residual activity: 100%
[38]
  residual activity: 83%
[39]
  residual activity: 100%
[40]
  residual activity: 87%
[41]
  residual activity: 99%
[42]
  residual activity: 100%
[43]
  residual activity: 87%
[44]
  residual activity: 94%
[45]
  residual activity: 100%
